Data set [1] relates to B16-F10. In words: Antimelanogenic activity in alpha-MSH-stimulated mouse B16F10 cells pretreated for 30 mins before alpha-MSH challenge measured after 48 hrs by ELISA reader. Format: functional, cell-based.
The test system of data set [2] is B16-F10. In words: Cytotoxicity against mouse B16F10 cells up to 200 ug/mL. It counts as cell-based.
In the next data set the target is T1, Tyrosinase (Agaricus bisporus, UniProt O42713).
T1 sequence (O42713 whole entry): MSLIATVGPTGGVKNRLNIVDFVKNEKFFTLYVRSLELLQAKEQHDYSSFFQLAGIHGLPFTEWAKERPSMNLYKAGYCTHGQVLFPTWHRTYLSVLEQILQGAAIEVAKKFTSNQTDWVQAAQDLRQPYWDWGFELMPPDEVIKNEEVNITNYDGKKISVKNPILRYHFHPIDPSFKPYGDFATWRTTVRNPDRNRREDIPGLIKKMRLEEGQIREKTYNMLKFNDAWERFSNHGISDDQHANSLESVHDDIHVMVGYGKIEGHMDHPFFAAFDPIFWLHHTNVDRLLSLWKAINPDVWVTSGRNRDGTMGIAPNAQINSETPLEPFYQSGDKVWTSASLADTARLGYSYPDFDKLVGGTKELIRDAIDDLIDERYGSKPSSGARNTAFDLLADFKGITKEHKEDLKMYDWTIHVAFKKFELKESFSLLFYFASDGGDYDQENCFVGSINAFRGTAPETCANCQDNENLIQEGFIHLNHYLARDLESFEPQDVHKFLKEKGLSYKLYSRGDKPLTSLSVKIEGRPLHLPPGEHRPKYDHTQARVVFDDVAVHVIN

Data set [3] has as its system B16-F10. In words: Decrease in tyrosinase mRNA expression in alpha-MSH-stimulated mouse B16F10 cells after 48 hrs by RT-PCR analysis. It counts as functional, cell-based.

Activity calls are given as the source filed them. The rule behind the calls is not given here.

Description for Tyrosinase: Inhibition of mushroom tyrosinase using L-DOPA after 10 mins by ELISA reader

For orientation: IC50 means the concentration at which inhibition is half-maximal. Lower therefore signals inhibition by little substance. Turning to `COc1cc([C@H]2c3c(cc(OC)c(O)c3OC)C[C@@H](CO)[C@H]2CO[C@@H]2O[C@H](CO)[C@@H](O)[C@H](O)[C@H]2O)cc(OC)c1O`, the result with B16-F10 [1] was Active. Also, in the data set with B16-F10 [2], the Activity result is given as “Non-toxic”. For the same molecule, the IC50 on Tyrosinase is greater than 1000 µM.

As for `COc1cc([C@@H]2c3c(cc(OC)c(O)c3OC)C[C@H](CO)[C@@H]2CO[C@@H]2O[C@H](CO)[C@@H](O)[C@H](O)[C@H]2O)cc(OC)c1O`, in the data set with B16-F10 [1], the outcome was Active. Also, the Activity result in the data set on B16-F10 [2] was “Non-toxic”. This molecule also gave an IC50 on Tyrosinase greater than 1000 µM.

With `COc1cc([C@@H]2c3c(cc(OC)c(O)c3OC)C[C@@H](CO)[C@H]2CO[C@@H]2O[C@H](CO)[C@@H](O)[C@H](O)[C@H]2O)cc(OC)c1O`, the result in the data set with B16-F10 [1] was Active. For the same molecule, the Activity entry with B16-F10 [2] is recorded as “Non-toxic”. This molecule displayed an IC50 on Tyrosinase greater than 1000 µM.

As to `COc1cc([C@H]2c3c(cc(OC)c(O)c3OC)C[C@H](CO)[C@@H]2CO[C@@H]2O[C@H](CO)[C@@H](O)[C@H](O)[C@H]2O)cc(OC)c1O`, the result in the data set on B16-F10 [1] was Active. The Activity entry in the data set with B16-F10 [2] is on record as “Non-toxic”. For the same molecule, the half-maximal inhibitory concentration (IC50) against Tyrosinase is greater than 1000 µM.

Consider `COc1cc(/C=C/C(=O)NCCc2ccc(O)c(OC)c2)ccc1O`, for which the result with B16-F10 [1] was Active. Besides, the Activity result in the data set with B16-F10 [2] was “Non-toxic”. At Tyrosinase, this molecule gave an IC50 greater than 1000 µM.

Take `COc1cc2c(cc1OC)C(=O)N(C)CC2`: in the data set on B16-F10 [1], the result was Active. The Activity entry with B16-F10 [2] is given as “Non-toxic”. On Tyrosinase, this molecule had a concentration for half-maximal inhibition (IC50) greater than 1000 µM.

With `CC1=CC(=O)CC(C)(C)[C@@H]1/C=C/[C@@H](C)O[C@@H]1O[C@H](CO)[C@@H](O)[C@H](O)[C@H]1O[C@@H]1O[C@@H](C)[C@H](O)[C@@H](O)[C@H]1O` [GUSANLUNGIONOSIDE A], the result in the data set on B16-F10 [1] and in the data set on B16-F10 [3] was Active. Also, in the data set on B16-F10 [2], the Activity entry is on record as “Non-toxic”. For the same molecule, the IC50 against Tyrosinase amounted to 150 µM.

`CC1=CC(=O)CC(C)(C)[C@H]1/C=C/[C@@H](C)O[C@@H]1O[C@H](CO)[C@@H](O)[C@H](O)[C@H]1O[C@@H]1O[C@@H](C)[C@H](O)[C@@H](O)[C@H]1O` [GUSANLUNGIONOSIDE B]: the outcome in the data set on B16-F10 [1] and in the data set on B16-F10 [3] was Active. For the same molecule, the Activity entry in the data set with B16-F10 [2] was “Non-toxic”. For the same molecule, the IC50 against Tyrosinase is 160 µM.

On to `CC1=CC(=O)CC(C)(C)[C@@H]1CC[C@@H](C)O[C@@H]1O[C@H](CO)[C@@H](O)[C@H](O)[C@H]1O[C@@H]1O[C@@H](C)[C@H](O)[C@@H](O)[C@H]1O` [GUSANLUNGIONOSIDE C], for which the result in the data set with B16-F10 [1] and with B16-F10 [3] was Active. Besides, the Activity entry in the data set with B16-F10 [2] is on record as “Non-toxic”. Besides, the IC50 on Tyrosinase came to 200 µM.

Consider `CC1=CC(=O)CC(C)(C)[C@H]1CC[C@@H](C)O[C@@H]1O[C@H](CO)[C@@H](O)[C@H](O)[C@H]1O[C@@H]1O[C@@H](C)[C@H](O)[C@@H](O)[C@H]1O` [GUSANLUNGIONOSIDE D], for which the result in the data set with B16-F10 [1] and with B16-F10 [3] was Active. In the data set on B16-F10 [2], the Activity result is listed as “Non-toxic”. Besides, the midpoint of inhibition on Tyrosinase, the IC50, lay at 190 µM.

For the molecule `O=C(/C=C/c1ccc(O)cc1)NCCc1ccc(O)cc1` [N-P-COUMAROYL TYRAMINE], the result with B16-F10 [1] was Active. Moreover, the Activity entry with B16-F10 [2] was “Non-toxic”. For the same molecule, the IC50 on Tyrosinase was greater than 1000 µM.

For `OCc1ccc(O)cc1` [PARAHYDROXYBENZYL ALCOHOL], in the data set with B16-F10 [1], the result was Active. In the data set with B16-F10 [2], the Activity result is “Non-toxic”. Besides, at Tyrosinase, the IC50 was greater than 1000 µM.

Turning to `COc1cc([C@H]2OC[C@H]3[C@@H]2CO[C@@H]3c2cc(OC)c(O)c(OC)c2)cc(OC)c1O` [SYRINGARESINOL], the outcome in the data set on B16-F10 [1] was Active. Moreover, the Activity result in the data set on B16-F10 [2] is reported as “Non-toxic”. At Tyrosinase, this molecule showed an IC50 greater than 1000 µM.

Take `COc1cc2c(cc1O)C(=O)N(C)CC2` [THALIFOLINE]: the outcome with B16-F10 [1] was Active. Besides, in the data set with B16-F10 [2], the Activity entry was “Non-toxic”. At Tyrosinase, this molecule showed an IC50 greater than 1000 µM.

Source of the values: ChEMBL document CHEMBL1811762, “Gusanlungionosides A-D, potential tyrosinase inhibitors from Arcangelisia gusanlung” (J Nat Prod, 2011).
